This is an account of results in patent publication US8883426B2, “Use of therapeutically effective lipids and method for producing organ-/tissue-specific therapeutically effective lipids” (PAT GmbH, priority 2005, dated 2014).

One experiment relates to colitis ulcerosa. The following applies: cited from earlier work.
The subject of another experiment is colon mucosa. Conditions: topic application, rat models, colitis induced by acetic acid and trinitro-benzosulfonic acid; cited from earlier work.
The subject of experiment [1] is HepG2-cells (hepatocytes). Put plainly: Selective enrichment of fluorescence-marked conjugate in HepG2-cells, fluorescence microscopy. Format: cell-based. Conditions: 50 uM, 37° C., 10 min., washed, treated with 5% beef-serum albumin. The protocol:
In order to control the selective enrichment of the LysoPE-DOCA-compound HepG2-cells (hepatocytes) were incubated at 37° C. with a fluorescence-marked ursodeoxycholate-1-palmitoyl, 2-NBD-PE-conjugate (at 50 uM) for 10 min., washed, and subsequently treated with 5% beef-serum albumin in order to remove the conjugate from the exterior plasma membrane of the cells. Subsequently the cells are microscopic controlled in phase contrast and in fluorescent light.

Where [2] appears, read: oral, retarding packaged form, compared to placebo control group.

phosphatidyl choline: the “inflammatory activity of colitis ulcerosa” value with colitis ulcerosa (oral, retarding packaged form with release in the lower small intestine and the colon) is recorded as “significantly suppresses the inflammatory activity”. Besides, in the experiment with colitis ulcerosa (setting [2]), the “improvement of the clinical activity on average” value is on record as 70% and the “patients treated in whom the improvement of clinical activity was achieved” value is given as 90%. In the experiment with colitis ulcerosa (within three months), the “patients reaching clinical remission” value is “more than half of the patients reached even clinical remission”. The “protection of colon mucosa from induced colitis” value with colon mucosa is recorded as “protecting colon mucosa from colitis”.
In the case of “ursodeoxycholate-1-palmitoyl, 2-NBD-PE-conjugate”, the “enrichment in the cells under fluorescent-microscopic observation” value in experiment [1] was “intense yellow-green coloration in the cytoplasm but not in the core of the cell”.
